Measurements reported in US7713998B2, “Nitrogenous heterocyclic compound and pharmaceutical use thereof” (Ono Pharmaceutical Co., Ltd., priority 2004, dated 2010).
pIC50: −log10 of the molar value.

What was measured:
[1] = target: recombinant human p38α MAP kinase (Homo sapiens, UniProt Q16539); experiment: Study on p38α MAP kinase inhibitory activity (ATF2 phosphorylation, Alpha Screen); format: biochemical; conditions: phosphorylation of biotinylated ATF2 by recombinant human p38α MAP kinase, 30° C. 30 minutes
Method: (1) Study on p38α Map Kinase Inhibitory Activity
Using activating transcription factor −2 (hereinafter abbreviated to ATF2) which is a substrate for p38α MAP kinase, the inhibitory action of the compounds of the present invention was investigated on the phosphorylation by a recombinant human p38α MAP kinase.
A kinase buffer (25 mM Tris-HCl (pH 7.5), 5 mM β-glycerophosphate, 2 mM dithiothreitol, 0.1 mM Na3VO4, 10 mM MgCl2) containing a recombinant human p38a MAP kinase was added to a 384-well plate (5 μL)(6.25 ng protein/well) for fluorescence measurement. After addition of a kinase buffer (5 μL) containing the compound of the present invention, the resulting mixture was incubated at room temperature for 20 minutes. […] The amount of a complex of the phosphorylated ATF2 and anti-phosphorylated ATF2 antibody produced by the reaction was measured using an Alpha Screen™ Rabbit Detection kit (Packard #6760607).
The p38α MAP kinase inhibitory activity, which is the effect of the compound of the present invention, was calculated as an inhibition rate (%) according to the following equation: Inhibition rate (%)={(AC−AX)/(AC−AB)}×100
wherein AB is a measured value without addition of the enzyme;
AC is a measured value with addition of the enzyme in the absence of a test compound; and
AX is a measured value with addition of the enzyme in the presence of a test compound. […]

[2] = tested on: TNF-α production stimulated by lipopolysaccharide (LPS) in THP-1; experiment: Inhibitory activity against TNF-α production using human cell lines (THP-1, LPS); format: cell-based; conditions: 1.5 h, THP-1 cells, 90 minutes, TNF-α in supernatant by ELISA
Method: (2) Inhibitory Activity Against TNF-α Production Using Human Cell Lines
Using THP-1 which is a human monocytic cell line, the inhibitory effect of the compound of the present invention against TNF-α production stimulated by lipopolysaccharide (LPS) was studied.
Each 50 μL of lipopolysaccharide (LPS; Difco #3120-25-0) prepared to a concentration of 40 ng/mL using RPMI-1640 medium containing 10% fetal calf serum (hereinafter abbreviated to RPMI-1640) and RPMI-1640 containing the compound of the present invention was added to a 96-well plate for cell culture. One hundred μL of the cell suspension of THP-1 (Dainippon Pharmaceutical Co., Ltd, #06-202) prepared to a cell density of 2×10^6 cells/mL using RPMI-1640 was added and cultured for 90 minutes at 37° C. in an incubator (5% CO2, 95% air). After completion of the reaction, the culture medium supernatant was recovered and the amount of produced TNF-α was measured using an ELISA kit (Invitrogen, #850090192).
The inhibitory activity against TNF-α production, which is the effect of the compound of the present invention, was calculated as an inhibition rate (%) by the following equation: Inhibition rate (%)={(AC−AX)/(AC−AB)}×100
wherein AB is a measured value without LPS induction;
AC is a measured value with LPS induction in the absence of a test compound; and
AX is a measured value with LPS induction in the presence of a test compound. […]

[3] = tested on: TNF-α production induced by lipopolysaccharide (LPS) in rats; experiment: Rat cytokine-production model; format: in vivo
Method: (3) Rat Cytokine-production Model
The in vivo effect of the compound of the present invention was studied on TNF-α production induced by lipopolysaccharide (LPS) in rats.
A vehicle containing the compound of the present invention was orally administered to male Lew mice (Charles River Japan, Inc.), and after 2 hours, lipopolysaccharide (LPS, 055:B5, Difco) was intravenously administered at the dose of 10 μg/kg (5 animals/group). Only a vehicle was orally administered to a control group (5 animals). Ninety minutes after the LPS treatment, heparinized blood collection was performed via the abdominal cava vein under anesthesia with ether, and blood plasma was obtained by centrifugation (12,000 rpm, 3 minutes, 4° C.). The obtained blood plasma sample was stored at −80° C. until it was used. TNF-α in the blood plasma was measured using an ELISA kit from Genzyme/Techne (#10516).
The inhibitory activity of the compound of the present invention against TNF-α production was calculated as an inhibition rate (%) according to the following equation: Inhibition rate (%)={(AC−AX)/AC}×100
wherein AC is a measured value in case where no test compound was administered under LPS induction, and
AX is a measured value in case where a test compound was administered under LPS induction.

Sequence of recombinant human p38α MAP kinase (Q16539 whole entry): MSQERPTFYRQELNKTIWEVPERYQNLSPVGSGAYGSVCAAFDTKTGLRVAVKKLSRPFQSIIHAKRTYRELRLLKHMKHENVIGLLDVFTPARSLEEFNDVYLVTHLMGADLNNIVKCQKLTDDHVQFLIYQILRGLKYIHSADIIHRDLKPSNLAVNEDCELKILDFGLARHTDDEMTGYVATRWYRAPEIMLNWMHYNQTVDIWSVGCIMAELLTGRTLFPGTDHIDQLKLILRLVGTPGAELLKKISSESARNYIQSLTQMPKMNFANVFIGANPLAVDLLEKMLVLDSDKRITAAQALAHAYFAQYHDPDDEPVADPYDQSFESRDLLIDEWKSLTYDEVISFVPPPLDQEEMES

Row | SMILES | pIC50 [1] | pIC50 [2] | TNF-α production inhibitory activity stronger by a factor than that of the compound disclosed in WO 01/030778 ([3]; comparison in same experimental model (1 mg/kg vs 10 mg/kg)) | inhibition against in vivo TNF-α production induced by LPS stimulation ([3]; dose of 1 mg/kg orally, LPS 10 μg/kg i.v. after 2 hours, plasma 90 minutes after LPS) [%] | inhibition against in vivo TNF-α production induced by LPS stimulation ([3]; dose of 10 mg/kg, same experimental model) [%]
1 | CN1CCC(c2nc(-c3ccc(=O)n(-c4c(Cl)cccc4Cl)c3)c(-c3ccc(F)cc3Cl)s2)CC1 [Example 10(2), 5-[5-(2-chloro-4-fluorophenyl)-2-(1-methylpiperidin-4-yl)-1,3-thiazol-4-yl]-1-(2,6-dichlorophenyl)pyridin-2(1H)-one] | 8.85 | 8.85 | ≥ 10 | 90 | 
2 | C[C@H](Nc1cc(-c2sc(C3CCN(C)CC3)nc2-c2ccc(F)cc2)ccn1)c1ccccc1 [compound disclosed in WO 01/030778, 4-[4-(4-fluorophenyl)-2-(1-methyl-4-piperidinyl)-1,3-thiazol-5-yl]-N-[(1S)-1-phenylethyl]-2-pyridinamine, reference compound] |  |  |  |  | 95
